From patent US7053107B2, “Indazole compounds and pharmaceutical compositions for inhibiting protein kinases, and methods for their use” (Agouron Pharmaceuticals, Inc., priority 2002, dated 2006)

Legend:
[1] = system: human umbilical vein endothelial cells (HUVEC); assay: HUVEC Proliferation Assay (VEGF-stimulated); assay type: cell-based
Method in brief: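 Serum-starved HUVEC (passage 3–4, F12K + 1% FBS, 24 h) pretreated 1 h with compound (final DMSO 0.1%), then stimulated with 6 ng/mL VEGF for 72 h. Proliferation read by 4 h MTT reduction, absorbance 595. IC50 from seven-point 0.5-log curves in triplicate; screening % inhibition normalised to VEGF-only and starvation controls.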

[2] = Human Liver Microsome (HLM) Assay; assay type: in vitro ADME
Method: Compound metabolism in human liver microsomes was measured by LC-MS analytical assay procedures as follows. First, human liver microsomes (HLM) were thawed and diluted to 5 mg/mL with cold 100 mM potassium phosphate (KPO4) buffer. Appropriate amounts of KPO4 buffer, NADPH-regenerating solution (containing B-NADP, glucose-6-phosphate, glucose-6-phosphate dehydrogenase, and MgCl2), and HLM were preincubated in 13×100 mm glass tubes at 37 C. for 10 min. (3 tubes per test compound—triplicate). Test compound (5 µM final) was added to each tube to initiate reaction and was mixed by gentle vortexing, followed by incubation at 37° C. […] Samples were centrifuged at 4000 rpm for 20 min. to precipitate proteins and salt (Beckman Allegra 6KR, S/N ALK98DO6, #634). Supernatant was transferred to new 12×75 mm glass tubes and evaporated by Speed-Vac centrifugal vacuum evaporator. Samples were reconstituted in 200 μL 0.1% formic acid/acetonitrile (90/10) and vortexed vigorously to dissolve. The samples were then transferred to separate polypropylene microcentrifuge tubes and centrifuged at 14000×g for 10 min. (Fisher Micro 14, S/N M0017580). […]
The combined compound samples were injected into the LC-MS system, composed of a Hewlett-Packard HP 1100 diode array HPLC and a Micromass Quattro II triple quadruple mass spectrometer operating in positive electrospray SIR mode (programmed to scan specifically for the molecular ion of each test compound. Each test compound peak was integrated at each timepoint. […]

HUVEC [3] = assay: bFGF Huvec; assay type: cell-based; conditions: Homo sapiens
LCK = target: T1, LCK (Homo sapiens, UniProt P06239, C224D/P223M); assay: Lymphocyte-Specific Protein-Tyrosine Kinase (LCK) spectrophotometric assay; assay type: biochemical; conditions: 1 μM compound; read-out: LckP* % inhibit @1 μM
T1 construct: starting from amino acid residue 223 to the end of the protein at residue 509; made in house; host or cells: insect cells
T1 sequence (P06239 223-509 P223M/C224D): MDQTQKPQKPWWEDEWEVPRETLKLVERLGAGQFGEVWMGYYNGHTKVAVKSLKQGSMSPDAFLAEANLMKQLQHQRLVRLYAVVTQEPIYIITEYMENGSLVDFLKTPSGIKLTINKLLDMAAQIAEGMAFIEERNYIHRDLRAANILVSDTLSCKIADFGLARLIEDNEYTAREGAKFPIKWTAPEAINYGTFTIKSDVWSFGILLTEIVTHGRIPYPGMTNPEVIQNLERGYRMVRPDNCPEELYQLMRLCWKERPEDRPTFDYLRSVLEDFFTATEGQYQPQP

HUVEC [4] = assay: HUVEC + albumin proliferation; assay type: cell-based; conditions: Homo sapiens, 72 h, with albumin
Method: This assay determines the ability of a test compound to inhibit the growth factor-stimulated proliferation of human umbilical vein endothelial cells (“HUVEC”). HUVEC cells (passage 3–4, Clonetics, Corp.) were thawed into EGM2 culture medium (Clonetics Corp) in T75 flasks. Fresh EGM2 medium was added to the flasks 24 hours later. Four or five days later, cells were exposed to another culture medium (F12K medium supplemented with 10% fetal bovine serum (FBS), 60 μg/mL endothelial cell growth supplement (ECGS), and 0.1 mg/mL heparin). Exponentially-growing HUVEC cells were used in experiments thereafter. Ten to twelve thousand HUVEC cells were plated in 96-well dishes in 100 μl of rich, culture medium (described above). The cells were allowed to attach for 24 hours in this medium. The medium was then removed by aspiration and 105 μl of starvation media (F12K+1% FBS) was added to each well. After 24 hours, 15 μl of test agent dissolved in 1% DMSO in starvation medium or this vehicle alone was added into each treatment well; the final DMSO concentration was 0.1%. One hour later, 30 μl of VEGF (30 ng/mL) in starvation media was added to all wells except those containing untreated controls; the final VEGF concentration was 6 ng/mL. Cellular proliferation was quantified 72 hours later by MTT dye reduction, at which time cells were exposed for 4 hours MTT (Promega Corp.). Dye reduction was stopped by addition of a stop solution (Promega Corp.) and absorbance at 595λ was determined on a 96-well spectrophotometer plate reader.
IC50 values were calculated by curve-fitting the response of A^595 to various concentrations of the test agent; typically, seven concentrations separated by 0.5 log were employed, with triplicate wells at each concentration. For screening compound library plates, one or two concentrations (one well per concentration) were employed, and the % inhibition was calculated by the following formula: % inhibition=(control−test)[…](control−starvation) where

[5] = target: T2, phosphorylated VEGF-R2Δ50 (Homo sapiens, UniProt P35968, DEL940-989/E990V); assay: VEGF-R2 coupled spectrophotometric (FLVK-P) assay, phosphorylated construct; assay type: biochemical; conditions: Ki (nM)
T2 construct: VEGF-R2Δ50 contains residues 806–939 and 990–1171; made in house; host or cells: baculovirus/insect cell system
T2 sequence (P35968 with tags, fused parts or gaps DEL940-989/E990V limits assumed): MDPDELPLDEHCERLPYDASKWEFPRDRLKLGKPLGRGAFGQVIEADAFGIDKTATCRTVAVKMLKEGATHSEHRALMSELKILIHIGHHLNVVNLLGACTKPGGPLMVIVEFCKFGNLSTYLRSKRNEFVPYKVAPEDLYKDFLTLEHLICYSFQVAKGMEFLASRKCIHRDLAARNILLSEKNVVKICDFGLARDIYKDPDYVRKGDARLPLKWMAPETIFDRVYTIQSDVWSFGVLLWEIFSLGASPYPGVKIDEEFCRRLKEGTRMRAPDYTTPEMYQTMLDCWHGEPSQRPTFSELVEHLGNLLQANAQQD
Text: This construct determines the ability of a test compound to inhibit tyrosine kinase activity. A construct (VEGF-R2Δ50) of the cytosolic domain of human vascular endothelial growth factor receptor 2 (VEGF-R2) lacking the 50 central residues of the 68 residues of the kinase insert domain was expressed in a baculovirus/insect cell system. Of the 1356 residues of full-length VEGF-R2, VEGF-R2Δ50 contains residues 806–939 and 990–1171, and also one point mutation (E99OV) within the kinase insert domain relative to wild-type VEGF-R2. Autophosphorylation of the purified construct was performed by incubation of the enzyme at a concentration of 4 μM in the presence of 3 mM ATP and 40 mM MgCl2 in 100 mM HEPES, pH 7.5, containing 5% glycerol and 5 mM DTT, at 4° C. for 2 h. […] See Parast et al., Biochemistry, 37,16788–16801 (1998).
The production of ADP from ATP that accompanies phosphoryl transfer was coupled to oxidation of NADH using phosphoenolpyruvate (PEP) and a system having pyruvate kinase (PK) and lactic dehydrogenase (LDH). The oxidation of NADH was monitored by following the decrease of absorbance at 340 nm (e340=6.22 cm^−1 mM^−1) using a Beckman DU 650 spectrophotometer. […] Ki values were determined by measuring enzyme activity in the presence of varying concentrations of test compounds. The data were analyzed using Enzyme Kinetic and Kaleidagraph software.

Cc1ccnc(/C=C/c2n[nH]c3cc(Nc4ccccc4C(=O)NC4CC4)ccc23)c1 [Example 2(h), N-Cyclopropyl-2-{3-[(E)-2-(4-methyl-pyridin-2-yl)-vinyl]-1H-indazol-6-ylamino}-benzamide]
IC50 [1]: 1.6 nM
% remaining (HLM) ([2]; @0.5 h): 74@0.5 h %
IC50 (HUVEC [3]): 70 nM

O=C(NC1CC1)c1ccccc1Nc1ccc2c(/C=C/c3ccccn3)n[nH]c2c1 [Example 3(d), N-Cyclopropyl-2-[3-((E)-2-pyridin-2-yl-vinyl)-1H-indazol-6-ylamino]-benzamide]
inhibition at 1 µM (LCK): 11%
IC50 [1]: 0.4 nM
% remaining (HLM) ([2]; @2 h): 68@2 h %
IC50 (HUVEC [3]): 147 nM
IC50 (HUVEC [4]): 7.5 nM

COc1ccccc1CNC(=O)c1ccccc1Nc1ccc2c(/C=C/c3ccccn3)n[nH]c2c1 [Example 3(h), N-(2-Methoxy-benzyl)-2-[3-((E)-2-pyridin-2-yl-vinyl)-1H-indazol-6-ylamino]-benzamide]
inhibition at 1 µM (LCK): 37%
IC50 [1]: 1.6 nM
% remaining (HLM) ([2]; @0.5 h): 75@0.5 h %

O=C(NC1CCC1)c1ccccc1Nc1ccc2c(/C=C/c3ccccn3)n[nH]c2c1 [Example 3(j), N-Cyclobutyl-2-[3-((E)-2-pyridin-2-yl-vinyl)-1H-indazol-6-ylamino]-benzamide]
inhibition at 1 µM (LCK): 17%
IC50 [1]: 1.7 nM
% remaining (HLM) ([2]; @0.5 h): 65@0.5 h %

C=C(C)CNC(=O)c1ccccc1Nc1ccc2c(/C=C/c3ccccn3)n[nH]c2c1 [Example 3(k), N-(2-Methyl-allyl)-2-[3-((E)-2-pyridin-2-yl-vinyl)-1H-indazol-6-ylamino]-benzamide]
inhibition at 1 µM (LCK): 19%
IC50 [1]: 0.8 nM
% remaining (HLM) ([2]; @0.5 h): 75@0.5 h %
IC50 (HUVEC [3]): 1000 nM

Cc1cc(C)nc(/C=C/c2n[nH]c3cc(Nc4ccccc4C(=O)NCC#CCO)ccc23)c1 [Example 10, 2-{3-[(E)-2-(4,6-Dimethyl-pyridin-2-yl)-vinyl]-1H-indazol-6-ylamino}-N-(4-hydroxy-but-2-ynyl)-benzamide]
IC50 [1]: 0.67 nM
% remaining (HLM) ([2]; @0.5 h): 80@0.5 h %
Ki [5]: 6.07 nM

C#CCNC(=O)c1ccccc1Nc1ccc2c(/C=C/c3cc(C)ccn3)n[nH]c2c1 [Example 32, 2-{3-[(E)-2-(4-Methyl-pyridin-2-yl)-vinyl]-1H-indazol-6-ylamino}-N-prop-2-ynyl-benzamide]
IC50 [1]: 0.61 nM
% remaining (HLM) ([2]; @0.5 h): 97@0.5 h %

O=C(NCC#CCO)c1ccccc1Nc1ccc2c(/C=C/c3ccccn3)n[nH]c2c1 [Example 64, N-(4-Hydroxy-but-2-ynyl)-2-[3-(2-pyridin-2-yl-vinyl)-1H-indazol-6-ylamino]-benzamide]
IC50 [1]: 0.15 nM
% remaining (HLM) ([2]; @0.5 h): 66@0.5 h %
IC50 (HUVEC [3]): 1250 nM
